Our source for the IC50 values is US6514952B1, “Hydantoin derivatives as inhibitors of leucocyte adhesion and as VLA-4 antagonists” (Hoechst Aktiengesellschaft, priority 1996, dated 2003).

SMILES strings stand for the structures.

What is called IC50 is the concentration needed to halve the response being measured. The low end stands for higher potency, the high end for lower potency.

This experiment deals with T1, interaction between VCAM-1 and VLA-4 (Homo sapiens, UniProt P05556+P13612).
T1 construct: the VLA-4-integrins, are offered in their natural form as surface molecules on human U937 cells; host or cells: U937 cells (VLA-4, endogenous); hVCAM-1(1-3)-IgG from supernatant of transfected COS cells (ATCC CRL1651)
T1 sequence (P13612 34-1032): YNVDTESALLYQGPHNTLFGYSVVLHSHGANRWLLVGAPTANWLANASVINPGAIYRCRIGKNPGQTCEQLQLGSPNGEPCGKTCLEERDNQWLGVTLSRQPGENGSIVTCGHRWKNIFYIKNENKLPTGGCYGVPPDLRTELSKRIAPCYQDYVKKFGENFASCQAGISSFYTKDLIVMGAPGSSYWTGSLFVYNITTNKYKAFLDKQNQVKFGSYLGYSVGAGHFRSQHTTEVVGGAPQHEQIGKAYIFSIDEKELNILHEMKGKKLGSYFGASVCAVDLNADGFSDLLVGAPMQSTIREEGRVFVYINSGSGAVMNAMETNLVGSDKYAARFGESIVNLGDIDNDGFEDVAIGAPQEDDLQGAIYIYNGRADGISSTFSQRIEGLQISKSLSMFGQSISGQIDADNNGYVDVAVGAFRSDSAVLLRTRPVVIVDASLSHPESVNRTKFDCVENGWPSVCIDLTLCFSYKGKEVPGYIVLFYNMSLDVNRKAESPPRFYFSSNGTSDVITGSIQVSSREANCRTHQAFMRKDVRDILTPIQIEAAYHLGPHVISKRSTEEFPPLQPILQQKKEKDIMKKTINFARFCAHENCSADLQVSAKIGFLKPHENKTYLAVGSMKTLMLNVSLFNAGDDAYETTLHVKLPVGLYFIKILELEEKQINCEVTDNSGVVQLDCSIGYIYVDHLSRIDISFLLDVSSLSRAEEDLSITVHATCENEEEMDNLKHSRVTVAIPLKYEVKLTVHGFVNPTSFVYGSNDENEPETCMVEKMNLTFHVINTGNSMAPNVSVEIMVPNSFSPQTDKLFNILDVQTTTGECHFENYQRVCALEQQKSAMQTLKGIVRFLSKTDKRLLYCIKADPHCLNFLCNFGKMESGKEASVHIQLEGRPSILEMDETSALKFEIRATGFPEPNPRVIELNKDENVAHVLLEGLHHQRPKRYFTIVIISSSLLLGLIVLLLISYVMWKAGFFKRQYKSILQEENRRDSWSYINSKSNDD
T1 sequence (P05556 21-798): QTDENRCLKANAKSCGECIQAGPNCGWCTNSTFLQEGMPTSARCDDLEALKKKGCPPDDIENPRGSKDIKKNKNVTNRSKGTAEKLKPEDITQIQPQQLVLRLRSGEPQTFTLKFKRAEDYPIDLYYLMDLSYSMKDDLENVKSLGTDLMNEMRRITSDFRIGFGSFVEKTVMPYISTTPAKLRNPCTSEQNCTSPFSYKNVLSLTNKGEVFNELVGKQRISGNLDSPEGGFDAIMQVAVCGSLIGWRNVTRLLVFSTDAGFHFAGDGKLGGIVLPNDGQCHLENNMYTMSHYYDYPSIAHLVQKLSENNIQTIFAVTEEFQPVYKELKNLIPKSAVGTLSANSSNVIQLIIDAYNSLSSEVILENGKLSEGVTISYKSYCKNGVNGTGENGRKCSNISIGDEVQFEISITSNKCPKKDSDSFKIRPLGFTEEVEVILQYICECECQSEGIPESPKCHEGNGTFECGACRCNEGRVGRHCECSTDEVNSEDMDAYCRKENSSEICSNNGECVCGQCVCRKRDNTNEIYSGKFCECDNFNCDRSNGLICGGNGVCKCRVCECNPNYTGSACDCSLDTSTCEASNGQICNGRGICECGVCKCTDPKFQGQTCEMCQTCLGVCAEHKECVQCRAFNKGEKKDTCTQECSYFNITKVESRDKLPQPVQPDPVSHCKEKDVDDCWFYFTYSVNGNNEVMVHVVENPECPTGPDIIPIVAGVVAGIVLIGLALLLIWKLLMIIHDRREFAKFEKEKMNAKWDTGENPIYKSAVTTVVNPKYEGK
The experiment in a line: U937/VCAM-1 cell adhesion test (adhesion of U937 cells to hVCAM-1(1-3)-IgG). Type of experiment: cell-based. The settings on record: inhibition of adhesion of human U937 cells (ATCC CRL 1593) to hVCAM-1(1-3)-IgG. An excerpt: As a test method for the activity of the compounds of the formula I on the interaction between VCAM-1 and VLA-4, an assay is used which is specific for this interaction. The cellular binding components, i.e. the VLA-4-integrins, are offered in their natural form as surface molecules on human U937 cells (ATCC CRL 1593), which belong to the group of leucocytes. As specific binding components, recombinant soluble fusion proteins, prepared by genetic engineering and consisting of the extracytoplasmic domains of human VCAM-1 and the constant region of a human immunoglobulin of the subclass IgG1, are used.
Assay for the Measurement of the Adhesion of U937 Cells (ATCC CRL 1593) to hVCAM-1(1-3)-IgG
1. Preparation of Human VCAM-1(1-3)-IgG and Human CD4-IgG
A genetic construct for the expression of the extracellular domains of human VCAM-1 was employed, associated with the genetic sequence of the heavy chain of human immunoglobulin IgG1 (hinge, CH2 and CH3 regions), from Dr. Brian Seed, Massachusetts General Hospital, Boston, USA. The soluble fusion protein hVCAM-1(1-3)-IgG contained the throe amino-terminal extracellular immunoglobulin-like domains of human VCAM-1 (Damle and Aruffo, Proc. Natl. Acad. Sci. USA 1991, 88, 6403). CD4-IgG (Zettlmeissl et al., DNA and Cell Biology 1990, 9, 347) served as a fusion protein for negative controls. The recombinant proteins were expressed as soluble proteins after DEAE/dextran-mediated DNA-transfection in COS cells (ATCC CRL1651) according to standard procedures (Ausubel et al., Current protocols in molecular biology, John Wiley & Sons, Inc., 1994).
2. Assay for the Measurement of the Adhesion of U937 Cells to hVCAM-1(1-3)-IgG
2.1 96-well microtiter test plates (Nunc Maxisorb) were incubated at room temperature for 1 hour with 100 μl/well of a goat-anti-human IgG antibody solution (10 μg/ml in 50 mM Tris, pH 9.5). After removing the antibody solution, washing was carried out once with PBS.
2.2 150 μl/well of a blocking buffer (1% BSA in PBS) was incubated on the plates at room temperature for 0.5 hour. […]
With `CC1(c2ccc(C3=NCCN3)cc2)C(=O)N(CC(=O)N[C@@H](CC(=O)O)C(=O)N[C@H](C(=O)O)c2ccccc2)C(=O)N1Cc1ccc2ccccc2c1` (stereo partly drawn) [Example 2, ((R,S)-4-(4-(4,5-Dihydro-2-imidazolyl)phenyl)-3-(2-naphthylmethyl)-4-methyl-2,5-dioxoimidazolidin-1-yl)acetyl-L-aspartyl-L-phenylglycine], inhibition was half-maximal at 14.5 µM (IC50).

Turning to `CC1(c2ccc(C3=NCCN3)cc2)C(=O)N(CC(=O)NC[C@H](NC(=O)OCC23CC4CC(CC(C4)C2)C3)C(=O)O)C(=O)N1Cc1ccc2ccccc2c1` (stereo partly drawn) [Example 3, (S)-3-(((R,S)-4-(4-(4,5-Dihydro-2-imidazolyl)phenyl)-3-(2-naphthylmethyl)-4-methyl-2,5-dioxoimidazolidin-1-yl)acetylamino)-2-(1-adamantyl-methyloxycarbonylamino)propionic Acid], the IC50 is 40 µM. Consider `CC1(c2ccc(C(N)=O)cc2)C(=O)N(CC(=O)N[C@@H](CC(=O)O)C(=O)N[C@H](C(=O)O)c2ccccc2)C(=O)N1Cc1ccccc1` (stereo partly drawn) [Example 1], for which half-maximal inhibition (IC50) was put at 7.5 µM.
